Laboratory results taken from article PMC9740789, “Investigation of In Vitro and In Vivo Metabolism of α-Amanitin in Rats Using Liquid Chromatography-Quadrupole Time-of-Flight Mass Spectrometric Method” (Molecules, 2022).
Like-named read-outs stand apart in the source and are kept apart here.

Tests used:
[1] = assay type: in vitro ADME, rat; conditions: for Long-term stability, mean accuracy / Freeze-thaw stability, mean accuracy / Short-term stability, mean accuracy: rat plasma, LC-qTOF-MS, triplicate or more; for Long-term stability, mean accuracy: 2 weeks, –20 °C; for Freeze-thaw stability, mean accuracy: 3 cycles, –20 °C and RT; for Short-term stability, mean accuracy: 4 h, RT
Procedure: To evaluate the stability of α-amanitin in rat plasma under the actual experimental environments, some stability tests were also conducted. The accuracy (%) and precision (% CV) of the stability test met the acceptance criteria of ±25%, identifying α-amanitin was stable under the short-term, long-term, and freeze-thaw conditions.
The method qualification was performed with “fit-for-purpose” criteria which are suitable for discovery stage research. The qualification contained seven levels of STD and three levels of QC in duplicate. […] Preliminary stability tests were performed at low, medium, and high QC in rat plasma. The stability test was performed under three different conditions: a short-term, a long-term, and a freeze-thaw condition. The short-term stability test was conducted at room temperature (RT) for 4 h. The long-term stability was conducted at –20 °C for 2 weeks. The freeze-thaw stability was conducted for three freeze and thaw cycles at –20 °C and RT. The extraction recovery of protein precipitation was evaluated by analyzing the difference between extracted Medium-QC (165 ng/mL) samples and post-extraction QC samples. The post-extraction QC sample was prepared by spiking the α-amanitin after protein precipitation.
The precision and accuracy of the acceptance criteria for this qualification runs were within ± 25% which are also similar to the discovery-stage bioanalytical criteria in pharmaceutical industry. All experiments were performed in triplicate or more.

in vivo = assay type: in vivo, rat
Procedure: The above developed LC-qTOF-MS method was applied to obtain the PK parameters after IV and PO administration in rat. Most of the PK samples were within the qualified calibration curve, except the 2 min-time point samples in the IV group which were slightly above the upper limit of quantification (ULOQ). Since the calibration curve was linear in the range of quantification, the concentrations of these early time point IV samples have been calculated by extrapolation of the calibration curve which is also applicable for discovery study in pharmaceutical industries. The PK parameters were calculated with the non-compartmental analysis (NCA) using WinNonlin® version 8.1.0 (Certara, Princeton, NJ, USA) and the results are summarized in Table 6.
Animal Male SD rats (320 ± 10 g) were purchased from the Samtako Biokorea co. (Gyeonggi, Republic of Korea) and housed in a group of four units per cage and given standard rodent chow. The rats were fasted overnight with free access to water for 12 h before administration. The formulation was prepared by dissolving α-amanitin in normal saline (NS) and DMSO (4:1, v/v).
The rats with femoral artery and femoral vein cannulation were prepared for the IV administration, and the rats with single femoral artery cannulation were prepared for the PO administration. The cannulated SD rats were given 1 mg/kg of α-amanitin by either IV bolus or PO (n = 4, both). After administration of α-amanitin, blood sample was collected through a femoral artery cannula and transferred into a heparin-containing tube at each sampling time point (IV: 2, 5, 15, 30, 60, 120, 240, 480, and 1440 min after drug administration and PO: 5, 15, 30, 60, 120, 240, 480, and 1440 min after drug administration). Then plasma sample was obtained by centrifuging the blood sample at 13,000 rpm for 5 min. The obtained plasma samples were stored at –20 °C until analysis. After analysis, the PK parameter was calculated using WinNonlin®.

[2] = Semi-mass balance study in rats; assay type: in vivo, rat; conditions: for dose excreted: Sprague-Dawley, rat
Procedure: The excretion characteristic of α-amanitin after IV and PO administration is shown in Table 7, and the time to recovery of α-amanitin profile is shown in Figure 5. The recovery represents the percentage of the excreted amount (mg) to the administrated amount (mg).
A semi-mass balance study was performed to explore the major elimination route of α-amanitin in rats. A non-radiolabeled α-amanitin was used for the semi-mass balance study which seems acceptable due to low metabolic turn-over of α-amanitin.
For the semi-mass balance study, the housed rats were prepared with a bile duct cannulation and administrated by IV bolus in a lateral tail vein or by PO at 1 mg/kg for each dosing route. Urine and feces were collected using a metabolic cage (Jeungdo Bio & Plant co., Seoul, Republic of Korea), and bile was collected through a bile duct cannula. The sampling time interval were 0–4, 4–8, 8–24, and 24–48 h after administration. The urine, bile, and feces samples were stored at –20 °C until further analysis.

[3] = rat, in vivo, male SD rats, IV bolus 1 mg/kg, plasma, NCA, n = 4

## CC[C@H](C)[C@@H]1NC(=O)CNC(=O)[C@@H]2Cc3c([nH]c4cc(O)ccc34)[S@+]([O-])C[C@H](NC(=O)CNC1=O)C(=O)N[C@@H](CC(N)=O)C(=O)N1C[C@H](O)C[C@H]1C(=O)N[C@@H]([C@@H](C)[C@@H](O)CO)C(=O)N2 [α-amanitin]
[1]; high QC 1820 ng/mL
  Long-term stability, mean accuracy: 103%
  Freeze-thaw stability, mean accuracy: 114%
  Short-term stability, mean accuracy: 95.7%
[1]; low QC 15.0 ng/mL
  Long-term stability, mean accuracy: 106%
  Freeze-thaw stability, mean accuracy: 94.9%
  Short-term stability, mean accuracy: 81.6%
[1]; medium QC 165 ng/mL
  Long-term stability, mean accuracy: 118%
  Freeze-thaw stability, mean accuracy: 103%
  Short-term stability, mean accuracy: 80.5%
[1]; short-term, long-term, and freeze-thaw conditions, acceptance criteria ±25%
  Stability in rat plasma (in words): stable
In vivo; male SD rats, PO 1 mg/kg, all samples 5-1440 min, n = 4, calibration range 3.05–2220 ng/mL
  Plasma concentration after PO administration: below the LLOQ
In vivo; rat, IV 1 mg/kg
  In vivo clearance as % of hepatic blood flow: ~30%
In vivo; rat, PO 1 mg/kg
  Bioavailability (in words): very low bioavailability
In vivo; [3]
  AUC(0-t): 1170 ng·h/mL
  clearance: 14 ± 1.3 mL/min/kg
  half-life: 22.3 ± 0.98 min
In vivo; rat, in vivo, male SD rats, IV bolus 1 mg/kg, plasma, NCA, n = 4, 2 min samples extrapolated above ULOQ
  Cmax: 2290 ± 274 ng/mL
In vivo; rat, in vivo, male SD rats, IV bolus 1 mg/kg, plasma, NCA, n = 4, read-out: Vss
  Vd: 0.409 ± 0.0183 L/kg
[2]; feces, bile duct cannulated rats, IV bolus 1 mg/kg, collection 0–48 h, excreted amount/administered amount, unchanged α-amanitin, LC-qTOF-MS, read-out: Recovery in feces
  dose excreted: < 0.01%
[2]; feces, bile duct cannulated rats, PO 1 mg/kg, collection 0–48 h, excreted amount/administered amount, unchanged α-amanitin, LC-qTOF-MS, read-out: Recovery in feces
  dose excreted: 22%
[2]; urine, bile duct cannulated rats, IV bolus 1 mg/kg, collection 0–48 h, excreted amount/administered amount, unchanged α-amanitin, LC-qTOF-MS, read-out: Recovery in urine
  dose excreted: 67.9%
[2]; urine, bile duct cannulated rats, PO 1 mg/kg, collection 0–48 h, excreted amount/administered amount, unchanged α-amanitin, LC-qTOF-MS, read-out: Recovery in urine
  dose excreted: 1.45%
[2]; bile duct cannulated rats, IV bolus 1 mg/kg, collection 0–48 h, excreted amount/administered amount, unchanged α-amanitin, LC-qTOF-MS, read-out: Recovery in bile
  dose excreted: 1%
[2]; bile duct cannulated rats, PO 1 mg/kg, collection 0–48 h, excreted amount/administered amount, unchanged α-amanitin, LC-qTOF-MS, read-out: Recovery in bile
  dose excreted: 0.05%
[2]; rats, IV 1 mg/kg, urine + bile + feces, 0–48 h, read-out: Total recovery
  dose excreted: 68.9%
[2]; rats, PO 1 mg/kg, urine + bile + feces, 0–48 h, read-out: Total recovery
  dose excreted: 23.5%
[2]; rats, IV 1 mg/kg
  Time within which most of the administered α-amanitin was excreted in urine: ≤ 8 h
